US10526291B2, “Potent dual BRD4-kinase inhibitors as cancer therapeutics” (H. Lee Moffitt Cancer Center and Research Institute, Inc., priority 2014, dated 2020)

Target: BRD4 (Homo sapiens, UniProt O60885)
Experiment: Differential Scanning Fluorimetry (DSF), stability of BRD4 upon ligand binding
Settings: for ΔTm at 4 µM: 100 μM protein, 4 μM compound and 2% DMSO; for IC50: estimated
Method: DSF=Differential Scanning Fluorimetry; provides a measure of the increased stability of BRD4 upon ligand binding The DSF experiment was run at 100 μM protein, 4 μM compound and 2% DMSO.

SMILES	ΔTm at 4 µM	IC50
CCc1cnc(Nc2ccc(N3CCOCC3)cc2)nc1Nc1cccc(S(=O)(=O)NC(C)C)c1	-0.29 °C	27100 nM
CC(C)(C)c1cccc(Nc2nc(Nc3ccc(N4CCOCC4)cc3)ncc2Cl)c1	-0.34 °C	28200 nM
CC(C)NS(=O)(=O)c1cccc(Nc2nc(Nc3ccc(N4CCNCC4)cc3)ncc2Br)c1	5 °C	460 nM
CCc1cnc(Nc2ccc(N3CCOCC3)cc2)nc1Nc1cccc(S(=O)(=O)NC(C)(C)C)c1	-0.0084 °C	21800 nM
CCc1cnc(Nc2ccc(N3CCN(C)CC3)cc2)nc1Nc1cccc(S(=O)(=O)NC(C)(C)C)c1	3.2 °C	1850 nM
Cc1nc(Nc2ccc(N3CCOCC3)cc2)nc(Nc2cccc(S(=O)(=O)NC(C)(C)C)c2)c1C	1.9 ± 0.17 °C	5030 nM
COc1ccc(Nc2nc(C)c(C)c(Nc3cccc(S(=O)(=O)NC(C)(C)C)c3)n2)cc1	0.22 ± 0.2 °C	18300 nM
COc1ccc(Nc2nc(C)c(C)c(Nc3cccc(S(N)(=O)=O)c3)n2)cc1	0.12 ± 0.13 °C	19800 nM
Cc1cnc(Nc2ccc(N3CCN(C)CC3)cc2)nc1Nc1cccc(S(=O)(=O)NC(C)C)c1	6 ± 0.1 °C	210 nM
CN1CCN(c2ccc(Nc3ncc(C(F)(F)F)c(Nc4cccc(S(=O)(=O)NC(C)(C)C)c4)n3)cc2)CC1	0.2 ± 0.082 °C	18600 nM
CC(C)(C)NS(=O)(=O)c1cccc(Nc2nc(Nc3ccc(N4CCNCC4)cc3)ncc2C(F)(F)F)c1	2.9 ± 0.031 °C	2330 nM
CN1CCN(c2ccc(Nc3ncc(Cl)c(Nc4ccc5c(c4)OCCO5)n3)cc2)CC1	2.6 ± 0.15 °C	2940 nM
CN1CCN(c2ccc(Nc3ncc(Cl)c(Nc4ccc5c(c4)OCO5)n3)cc2)CC1	0.073 ± 0.083 °C	20500 nM
COc1cc(Nc2nc(Nc3ccc(N4CCN(C)CC4)cc3)ncc2Cl)c(OC)cc1Cl	0.073 ± 0.13 °C	20500 nM
CCc1cnc(Nc2ccc(N3CCN(C)CC3)cc2)nc1Nc1ccc(Cl)c(OC)c1	1.3 ± 0.11 °C	7980 nM
Cc1cnc(Nc2ccc(N3CCN(C)CC3)cc2)nc1Nc1ccc(F)c(NS(=O)(=O)C(C)(C)C)c1	9.5 ± 0.07 °C	14 nM
Cc1cnc(Nc2ccc(N3CCN(C)CC3)cc2)nc1Nc1cc(NS(=O)(=O)C2CC2)cc(NS(=O)(=O)C2CC2)c1	5.3 ± 0.041 °C	370 nM
Cc1cnc(Nc2ccc(N3CCN(C)CC3)cc2)nc1Nc1ccc(Cl)c([N+](=O)[O-])c1	2 ± 0.05 °C	4700 nM
Cc1cnc(Nc2ccc(N3CCN(C)CC3)cc2)nc1Nc1ccc(Cl)c(S(=O)(=O)NC(C)(C)C)c1	8.4 ± 0.13 °C	34 nM
Cc1cnc(Nc2ccc(CC(=O)N3CCN(C)CC3)cc2)nc1Nc1ccc(Cl)cc1	4.1 ± 0.21 °C	930 nM
Cc1cnc(Nc2ccc(CC(=O)N3CCN(C)CC3)cc2)nc1Nc1ccc(Cl)c(Cl)c1	4.7 ± 0.14 °C	580 nM
CCCS(=O)(=O)Nc1cc(Nc2nc(Nc3ccc(N4CCN(C)CC4)cc3)ncc2C)ccc1Cl	6.7 ± 0.15 °C	130 nM
Cc1cnc(Nc2ccc(CC(=O)N3CCN(C)CC3)cc2)nc1Nc1ccc(Cl)c(NS(=O)(=O)C(C)(C)C)c1	9.8 ± 0.03 °C	12 nM
CCOC(=O)c1cnc(Nc2ccc(N3CCN(C)CC3)cc2)nc1Nc1cccc(NS(=O)(=O)C(C)(C)C)c1	3.4 ± 0.12 °C	1600 nM
Cc1ccc(Nc2nc(Nc3ccc(N4CCN(C)CC4)cc3)ncc2C)cc1S(=O)(=O)NC1CCC1	6.7 ± 0.13 °C	130 nM

SMILES	ΔTm at 4 µM	IC50
Cc1ccc(Nc2nc(Nc3ccc(C(=O)NC4CCN(C)CC4)c(F)c3)ncc2C)cc1S(=O)(=O)NC1CCC1	7.8 ± 0.15 °C	54 nM
Cc1ccc(Nc2nc(Nc3ccc(N4CCN(C)CC4)c(F)c3)ncc2C)cc1S(=O)(=O)NC1CCC1	6.8 ± 0.01 °C	120 nM
CN1CCN(c2ccc(Nc3ncc(CO)c(Nc4cccc(NS(=O)(=O)C(C)(C)C)c4)n3)cc2)CC1	3.1 ± 0.08 °C	2000 nM
Cc1ccc(Nc2nc(Nc3ccc(C4CCN(C)CC4)cc3)ncc2C)cc1S(=O)(=O)NC1CCC1	7.7 ± 0.17 °C	58 nM
Cc1cnc(Nc2ccc(N3CCN(C)CC3)cc2)nc1Nc1cccc(NS(=O)(=O)C2(C)CC2)c1	7.5 ± 0.23 °C	68 nM
Cc1cnc(Nc2ccc(N3CCN(C)CC3)c(F)c2)nc1Nc1cccc(NS(=O)(=O)C2(C)CC2)c1	9.1 ± 0.05 °C	20 nM
CCCS(=O)(=O)Nc1cccc(Nc2nc(Nc3ccc(N4CCN(C)CC4)cc3)ncc2C)c1	6.7 ± 0.157 °C	321 nM
Cc1cnc(Nc2ccc(N3CCN(C)CC3)cc2)nc1Nc1cccc(NS(=O)(=O)CC(C)C)c1	6.58 ± 0.103 °C	347 nM
CCS(=O)(=O)Nc1cc(Nc2nc(Nc3ccc(N4CCN(C)CC4)cc3)ncc2C)ccc1Cl	7.93 ± 0.183 °C	145 nM
Cc1cnc(Nc2ccc(N3CCN(C)CC3)cc2)nc1Nc1ccc(Cl)c(NS(=O)(=O)CC(C)C)c1	7.28 ± 0.091 °C	221 nM
Cc1cnc(Nc2ccc(N3CCN(C)CC3)c(F)c2)nc1Nc1ccc(Cl)c(NS(=O)(=O)CC(C)C)c1	8.89 ± 0.044 °C	74.8 nM
Cc1cnc(Nc2ccc(N3CCN(C)CC3)cc2)nc1Nc1ccc2c(c1)N(S(=O)(=O)C(C)(C)C)CC2	9.97 ± 0.08 °C	39 nM
Cc1cnc(Nc2ccc(N3CCN(C)CC3)c(F)c2)nc1Nc1ccc2c(c1)N(S(=O)(=O)C(C)(C)C)CC2	12.1 ± 0.105 °C	9.8 nM
Cc1cnc(Nc2ccc(C(=O)NC3CCN(C)CC3)c(F)c2)nc1Nc1ccc2c(c1)N(S(=O)(=O)C(C)(C)C)CC2	12.3 ± 0.116 °C	8.6 nM
Cc1cnc(Nc2ccc(N3CCN(C)CC3)cc2)nc1Nc1ccc2c(c1)N(S(=O)(=O)C(C)(C)C)CCC2	8.72 ± 0.141 °C	87.3 nM
Cc1cnc(Nc2ccc(N3CCN(C)CC3)c(F)c2)nc1Nc1ccc2c(c1)N(S(=O)(=O)C(C)(C)C)CCC2	10.5 ± 0.15 °C	27.7 nM
Cc1cnc(Nc2ccc(C(=O)NC3CCN(C)CC3)c(F)c2)nc1Nc1ccc2c(c1)N(S(=O)(=O)C(C)(C)C)CCC2	11.4 ± 0.103 °C	15.5 nM
Cc1cnc(Nc2ccc(N3CCN(C)CC3)c(Cl)c2)nc1Nc1ccc(Cl)c(NS(=O)(=O)C(C)(C)C)c1	9.54 ± 0.163 °C	51.4 nM
Cc1cc(Nc2ncc(C)c(Nc3ccc(Cl)c(NS(=O)(=O)C(C)(C)C)c3)n2)ccc1N1CCN(C)CC1	10.4 ± 0.151 °C	29.5 nM
Cc1cnc(Nc2cc(F)c(N3CCN(C)CC3)c(F)c2)nc1Nc1cccc(NS(=O)(=O)C(C)(C)C)c1	12.8 ± 0.058 °C	6.28 nM
Cc1cnc(Nc2ccc(N3CCN(C)CC3)c(C(F)(F)F)c2)nc1Nc1cccc(NS(=O)(=O)C(C)(C)C)c1	8.12 ± 0.044 °C	129 nM
Cc1cnc(Nc2cc(F)c(N3CCN(C)CC3)c(F)c2)nc1Nc1ccc(Cl)c(NS(=O)(=O)C(C)(C)C)c1	13.8 ± 0.191 °C	3.29 nM
Cc1cnc(Nc2cc(F)c(N3CCN(C)CC3)c(F)c2)nc1Nc1ccc(Cl)c(NS(=O)(=O)C2(C)CC2)c1	12.3 ± 0.167 °C	8.6 nM
Cc1cnc(Nc2ccc(C(=O)NC3CCN(C)CC3)c(F)c2)nc1Nc1ccc(Cl)c(NS(=O)(=O)C2(C)CC2)c1	10.9 ± 0.22 °C	21 nM
Cc1cnc(Nc2ccc(N3CCN(C)CC3)cc2)nc1Nc1cccc([N+](=O)[O-])c1	3.17 ± 0.142 °C	3130 nM
